Data on 32 compounds can be found in patent publication US6787535B2, “Indole derivatives with 5HT6 receptor affinity” (Syntex (U.S.A.) LLC, priority 2001, dated 2004).

Where a name gives a salt, the structure may show the parent alone.

Usually melting point stands for the temperature, or range, at which the solid turns liquid. `CN1CCN(c2cccc3c(S(=O)(=O)c4ccccc4C(F)(F)F)c[nH]c23)CC1` [compound 508, 7-(4-methyl-piperazin-1-yl)-3-(2-trifluoromethyl-benzenesulfonyl)-1H-indole] registered a melting point of 237.1 to 241.5 °C.
`O=S(=O)(c1ccccn1)c1c[nH]c2c(N3CCNCC3)cccc12` returned a melting point of 198 to 199 °C.
To `O=S(=O)(c1cc(Cl)cc(Cl)c1)c1c[nH]c2c(N3CCNCC3)cccc12` [compound 105, 3-(3,5-dichloro-benzenesulfonyl)-7-piperazin-1-yl-1H-indole] belongs 290 °C.
Turning to `O=S(=O)(c1ccc(Cl)c(Cl)c1)c1c[nH]c2ccc(N3CCNCC3)cc12` [compound 111, 3-(3,4-dichloro-benzenesulfonyl)-5-piperazin-1-yl-1H-indole], the melting point is > 300 °C.
In the case of `Cn1cc(S(=O)(=O)c2ccccc2)c2cc(N3CCNCC3)ccc21` [compound 403, 3-benzenesulfonyl-1-methyl-5-piperazin-1-yl-1H-indole] it was 239 to 240 °C (dec.).
Take `O=S(=O)(c1ccc(Cl)cc1Cl)c1c[nH]c2c(N3CCNCC3)cccc12` [compound 106, 3-(2,4-dichloro-benzenesulfonyl)-7-piperazin-1-yl-1H-indole]: the melting point was 300 °C.
To `Cn1cc(S(=O)(=O)c2cccc(Cl)c2)c2cc(N3CCNCC3)ccc21` [compound 415, 3-(3-chloro-benzenesulfonyl)-1-methyl-5-piperazin-1-yl-1H-indole] belongs 185.5 to 188.5 °C; to `Cn1cc(S(=O)(=O)c2ccccc2C(F)(F)F)c2cccc(N3CCNCC3)c21` [compound 404, 1-methyl-7-piperazin-1-yl-3-(2-trifluoromethyl-benzenesulfonyl)-1H-indole], 295 °C; to `Cn1cc(S(=O)(=O)c2ccccc2Cl)c2cccc(N3CCNCC3)c21` [compound 407, 3-(2-chloro-benzenesulfonyl)-1-methyl-7-piperazin-1-yl-1H-indole], 295 to 297 °C.
For `Cc1ccc(S(=O)(=O)c2c[nH]c3c(N4CCNCC4)cccc23)cc1` [compound 102, 7-piperazin-1-yl-3-(toluene-4-sulfonyl)-1H-indole], the melting point lay within 285 to 287 °C.
In the case of `O=S(=O)(c1cccc(Cl)c1Cl)c1c[nH]c2ccc(N3CCNCC3)cc12` [compound 202, 3-(2,3-dichloro-benzenesulfonyl)-5-piperazin-1-yl-1H-indole] it was > 300 °C; in that of `CN1CCN(c2cccc3c(S(=O)(=O)c4ccc(Cl)cc4Cl)c[nH]c23)CC1` [compound 506, 3-(2,4-dichloro-benzenesulfonyl)-7-(4-methyl-piperazin-1-yl)-1H-indole], 199 to 203 °C.
In the case of `Cn1cc(S(=O)(=O)c2cc(Cl)cc(Cl)c2)c2cc(N3CCNCC3)ccc21` [compound 411, 3-(3,5-dichloro-benzenesulfonyl)-1-methyl-5-piperazin-1-yl-1H-indole] it was 282 to 284.5 °C.
With `O=S(=O)(c1ccccc1)c1c[nH]c2c(C3CCNCC3)cccc12` [compound 301, 3-benzenesulfonyl-7-piperidin-4-yl-1H-indole], the melting point is 186 to 189.5 °C.
Compound `O=S(=O)(c1ccccc1C(F)(F)F)c1c[nH]c2c(N3CCNCC3)cccc12` [compound 109, 7-piperazin-1-yl-3-(2-trifluoromethyl-benzenesulfonyl)-1H-indole] displayed a melting point of 186 to 187 °C.
`Cc1[nH]c2c(N3CCNCC3)cccc2c1S(=O)(=O)c1ccc(F)cc1` [compound 603, 3-(4-fluorobenzenesulfonyl)-2-methyl-7-piperazin-1-yl-1H-indole]: the melting point lay in the range of 232 to 236 °C.
In the case of `CCN1CCN(c2cccc3c(S(=O)(=O)c4ccccc4)c[nH]c23)CC1` [compound 513, 3-benzenesulfonyl-7-(4-ethyl-piperazin-1-yl)-1H-indole] it was 274 to 275 °C.
Turning to `CN1CCN(c2cccc3c(S(=O)(=O)c4ccc(Cl)c(Cl)c4)c[nH]c23)CC1` [compound 503, 3-(3,4-dichloro-benzenesulfonyl)-7-(4-methyl-piperazin-1-yl)-1H-indole], the melting point was in the range of 196 to 203 °C.
Compound `O=S(=O)(c1cccc(Cl)c1)c1c[nH]c2c(N3CCNCC3)cccc12` [compound 107, 3-(3-chloro-benzenesulfonyl)-7-piperazin-1-yl-1H-indole] showed a melting point of 295 °C.
The compound `O=S(=O)(c1cccc(Cl)c1)c1c[nH]c2ccc(N3CCNCC3)cc12` [compound 110, 3-(3-chloro-benzenesulfonyl)-5-piperazin-1-yl-1H-indole] gave a melting point of 192 to 197 °C.
To `Cn1cc(S(=O)(=O)c2cccc(C(F)(F)F)c2)c2cccc(N3CCNCC3)c21` [compound 406, 1-methyl-7-piperazin-1-yl-3-(3-trifluoromethyl-benzenesulfonyl)-1H-indole] belongs 279 to 280 °C.
Turning to `Cn1cc(S(=O)(=O)c2ccccn2)c2cc(N3CCNCC3)ccc21` [compound 416, 1-methyl-5-piperazin-1-yl-3-(pyridine-2-sulfonyl)-1H-indole], the melting point was 256.8 to 257.5 °C.
`Cn1cc(S(=O)(=O)c2ccccc2Cl)c2cc(N3CCNCC3)ccc21` [compound 414, 3-(2-chloro-benzenesulfonyl)-1-methyl-5-piperazin-1-yl-1H-indole] yielded a melting point of 249.6 to 253 °C.
In the case of `O=S(=O)(c1ccc(F)cc1)c1c[nH]c2ccc(N3CCNCC3)cc12` [compound 207, 3-(4-fluoro-benzenesulfonyl)-5-piperazin-1-yl-1H-indole] it was 289 to 291 °C; in that of `Cn1cc(S(=O)(=O)c2cccc(Cl)c2Cl)c2cc(N3CCNCC3)ccc21` [compound 409, 3-(2,3-dichloro-benzenesulfonyl)-1-methyl-5-piperazin-1-yl-1H-indole], 198 to 203 °C; in that of `Cn1cc(S(=O)(=O)c2cccc(C(F)(F)F)c2)c2cc(N3CCNCC3)ccc21` [compound 410, 1-methyl-5-piperazin-1-yl-3-(3-trifluoromethyl-benzenesulfonyl)-1H-indole], 235 to 240 °C.
In the case of `CN1CCN(c2cccc3c(S(=O)(=O)c4ccccc4)cn(C)c23)CC1` [compound 502, 3-benzenesulfonyl-1-methyl-7-(4-methyl-piperazin-1-yl)-1H-indole] it was 260 to 262 °C; in that of `O=S(=O)(c1ccccc1)c1c[nH]c2ccc(N3CCNCC3)cc12`, 254 to 264 °C (dec.); in that of `Cn1cc(S(=O)(=O)c2ccccc2)c2cccc(N3CCNCC3)c21` (as salt: hydrochloride) [compound 401, 3-benzenesulfonyl-1-methyl-7-piperazin-1-yl-1H-indole hydrochloride], 249 to 250 °C.
In the case of `c1ccc(Sc2c[nH]c3c(N4CCNCC4)cccc23)cc1` it was 300 °C; in that of `O=S(=O)(c1ccccn1)c1c[nH]c2cc(N3CCNCC3)ccc12`, 246.7 to 247.2 °C; in that of `O=S(=O)(c1ccccc1Cl)c1c[nH]c2c(N3CCNCC3)cccc12` [compound 108, 3-(2-chloro-benzenesulfonyl)-7-piperazin-1-yl-1H-indole], 280 to 282 °C.
